According to the supplement of paper PMC8882468:
± gives the standard deviation of the averaged measurements.

These molecules were tested on HCI-019 (organoid from a triple-negative breast cancer xenograft) (assay: CTG-3D luminescence at 96 h relative to day-0 seeding control (ratio to day 0); higher = more growth / less cytotoxicity; PDxO 3D drug screen, 96 h, CTG-3D normalised to day-0 seeding control.). Conditions: 625 fM; days in culture: 110.
With `NC(=O)c1cccc2cn(-c3ccc([C@@H]4CCCNC4)cc3)nc12` [niraparib] the “CTG-3D luminescence at 96 h” value was 2.72. `Cc1cc(Nc2ncnc3ccc(NC4=NC(C)(C)CO4)cc23)ccc1Oc1ccn2ncnc2c1` [tucatinib] was tested, and the “CTG-3D luminescence at 96 h” value was 2.47. With `CCN(c1cc(C#CCN2CCOCC2)cc(C(=O)NCc2c(C)cc(C)[nH]c2=O)c1C)[C@H]1CC[C@H](N(C)CCOC)CC1` the “CTG-3D luminescence at 96 h” value was 2.28.

Same assay, conditions: 625 fM; days in culture: 131
With `NC1(C(=O)N[C@@H](CCO)c2ccc(Cl)cc2)CCN(c2nc[nH]c3nccc2-3)CC1` [capivasertib] the “CTG-3D luminescence at 96 h” value was 4.08. For `CC(C)n1nc(-c2ccc3oc(N)nc3c2)c2c(N)ncnc21` [sapanisertib], the “CTG-3D luminescence at 96 h” value was 3.58. In the case of `O=C(c1ccc(F)c(F)c1Nc1ccc(I)cc1F)N1CC(O)([C@@H]2CCCCN2)C1` [cobimetinib], the “CTG-3D luminescence at 96 h” value is reported as 3.82. For `C[C@H](NC(=O)CCC(F)(F)F)C(=O)N[C@@H]1C(=O)N(CCO)c2ncccc2-c2ccccc21` [crenigacestat], the “CTG-3D luminescence at 96 h” value was 3.74. With `Cc1cc(Nc2ncc(Cl)c(Nc3ccccc3S(=O)(=O)C(C)C)n2)c(OC(C)C)cc1C1CCNCC1` [ceritinib] the “CTG-3D luminescence at 96 h” value was 3.86. With `CS(=O)(=O)c1ccc(C(=O)Nc2ccc(Cl)c(-c3ccccn3)c2)c(Cl)c1` [vismodegib] the “CTG-3D luminescence at 96 h” value was 3.4. `NC(=O)c1cccc2cn(-c3ccc([C@@H]4CCCNC4)cc3)nc12` [niraparib] was tested, and the “CTG-3D luminescence at 96 h” value was 3.35. For `Cc1cc(Nc2ncnc3ccc(NC4=NC(C)(C)CO4)cc23)ccc1Oc1ccn2ncnc2c1` [tucatinib], the “CTG-3D luminescence at 96 h” value was 4.09. `CCN(c1cc(C#CCN2CCOCC2)cc(C(=O)NCc2c(C)cc(C)[nH]c2=O)c1C)[C@H]1CC[C@H](N(C)CCOC)CC1` was tested, and the “CTG-3D luminescence at 96 h” value was 3.23.

Same assay, conditions: 625 fM; days in culture: 152
In the case of `NC1(C(=O)N[C@@H](CCO)c2ccc(Cl)cc2)CCN(c2nc[nH]c3nccc2-3)CC1` [capivasertib], the “CTG-3D luminescence at 96 h” value is reported as 2.6. In the case of `CC(C)n1nc(-c2ccc3oc(N)nc3c2)c2c(N)ncnc21` [sapanisertib], the “CTG-3D luminescence at 96 h” value is reported as 2.12. For `O=C(c1ccc(F)c(F)c1Nc1ccc(I)cc1F)N1CC(O)([C@@H]2CCCCN2)C1` [cobimetinib], the “CTG-3D luminescence at 96 h” value was 2.36. With `C[C@H](NC(=O)CCC(F)(F)F)C(=O)N[C@@H]1C(=O)N(CCO)c2ncccc2-c2ccccc21` [crenigacestat] the “CTG-3D luminescence at 96 h” value was 2.48. With `Cc1cc(Nc2ncc(Cl)c(Nc3ccccc3S(=O)(=O)C(C)C)n2)c(OC(C)C)cc1C1CCNCC1` [ceritinib] the “CTG-3D luminescence at 96 h” value was 2.52. In the case of `CS(=O)(=O)c1ccc(C(=O)Nc2ccc(Cl)c(-c3ccccn3)c2)c(Cl)c1` [vismodegib], the “CTG-3D luminescence at 96 h” value is reported as 1.86. `NC(=O)c1cccc2cn(-c3ccc([C@@H]4CCCNC4)cc3)nc12` [niraparib] was tested, and the “CTG-3D luminescence at 96 h” value was 2.35. `Cc1cc(Nc2ncnc3ccc(NC4=NC(C)(C)CO4)cc23)ccc1Oc1ccn2ncnc2c1` [tucatinib] was tested, and the “CTG-3D luminescence at 96 h” value was 2. In the case of `CCN(c1cc(C#CCN2CCOCC2)cc(C(=O)NCc2c(C)cc(C)[nH]c2=O)c1C)[C@H]1CC[C@H](N(C)CCOC)CC1`, the “CTG-3D luminescence at 96 h” value is reported as 2.36.

What follows are molecules tested on HCI-011.E2 (organoid from an ER-positive breast cancer xenograft) in the same assay as above. Conditions: 12.5 pM.
`NC1(C(=O)N[C@@H](CCO)c2ccc(Cl)cc2)CCN(c2nc[nH]c3nccc2-3)CC1` [capivasertib] was tested, and the “CTG-3D luminescence at 96 h” value was 1.63 ± 0.22. With `CC(C)n1nc(-c2ccc3oc(N)nc3c2)c2c(N)ncnc21` [sapanisertib] the “CTG-3D luminescence at 96 h” value was 1.81 ± 0.23. For `O=C(c1ccc(F)c(F)c1Nc1ccc(I)cc1F)N1CC(O)([C@@H]2CCCCN2)C1` [cobimetinib], the “CTG-3D luminescence at 96 h” value was 1.67 ± 0.2. With `C[C@H](NC(=O)CCC(F)(F)F)C(=O)N[C@@H]1C(=O)N(CCO)c2ncccc2-c2ccccc21` [crenigacestat] the “CTG-3D luminescence at 96 h” value was 1.52 ± 0.18. With `Cc1cc(Nc2ncc(Cl)c(Nc3ccccc3S(=O)(=O)C(C)C)n2)c(OC(C)C)cc1C1CCNCC1` [ceritinib] the “CTG-3D luminescence at 96 h” value was 1.68 ± 0.72. `CS(=O)(=O)c1ccc(C(=O)Nc2ccc(Cl)c(-c3ccccn3)c2)c(Cl)c1` [vismodegib] was tested, and the “CTG-3D luminescence at 96 h” value was 1.44 ± 0.087. With `NC(=O)c1cccc2cn(-c3ccc([C@@H]4CCCNC4)cc3)nc12` [niraparib] the “CTG-3D luminescence at 96 h” value was 1.33 ± 0.58. `Cc1cc(Nc2ncnc3ccc(NC4=NC(C)(C)CO4)cc23)ccc1Oc1ccn2ncnc2c1` [tucatinib] was tested, and the “CTG-3D luminescence at 96 h” value was 1.7 ± 0.0054. `CCN(c1cc(C#CCN2CCOCC2)cc(C(=O)NCc2c(C)cc(C)[nH]c2=O)c1C)[C@H]1CC[C@H](N(C)CCOC)CC1` was tested, and the “CTG-3D luminescence at 96 h” value was 1.4 ± 0.56.

Same assay, conditions: 12.5 pM; days in culture: 74
In the case of `NC1(C(=O)N[C@@H](CCO)c2ccc(Cl)cc2)CCN(c2nc[nH]c3nccc2-3)CC1` [capivasertib], the “CTG-3D luminescence at 96 h” value is reported as 1.84. In the case of `CC(C)n1nc(-c2ccc3oc(N)nc3c2)c2c(N)ncnc21` [sapanisertib], the “CTG-3D luminescence at 96 h” value is reported as 2.89. For `O=C(c1ccc(F)c(F)c1Nc1ccc(I)cc1F)N1CC(O)([C@@H]2CCCCN2)C1` [cobimetinib], the “CTG-3D luminescence at 96 h” value was 2.68. `C[C@H](NC(=O)CCC(F)(F)F)C(=O)N[C@@H]1C(=O)N(CCO)c2ncccc2-c2ccccc21` [crenigacestat] was tested, and the “CTG-3D luminescence at 96 h” value was 2.42.
